Experimental data from ChEMBL document CHEMBL3044804, “Morphogenetic and Toxic Activity of Seven Novel 2, 2-Dimethylchromene Derivatives on Larvae of Oncopeltus fasciatus and Pieris brassicae” (1991).

Columns and labels:
Type in all cases: functional
[1] = tested on: Oncopeltus fasciatus; experiment: Morphogenetic activity against third-instar nymphs of Oncopeltus fasciatus assessed as occurrence of precocious metamorphosis at 3 ug/cm'2
[2] = tested on: Pieris brassicae; experiment: Insecticidal activity against fourth-instar larvae of Pieris brassicae assessed as mortality per insect after 5 days
[3] = tested on: Oncopeltus fasciatus; experiment: Morphogenetic activity against fourth-instar nymphs of Oncopeltus fasciatus assessed as occurrence of precocious metamorphosis at 3 ug/cm'2
[4] = tested on: Oncopeltus fasciatus; experiment: Morphogenetic activity against fifth-instar nymphs of Oncopeltus fasciatus assessed as occurrence of precocious metamorphosis at 3 ug/cm'2
[5] = tested on: Oncopeltus fasciatus; experiment: Morphogenetic activity against second-instar nymphs of Oncopeltus fasciatus assessed as mortality at 3 ug/cm'2

Row | Compound | Activity [1] | LD50 [2] | Activity [3] | Activity [4] | Activity [5]
1 | COc1cc2c(cc1OC)OC(C)(C)C=C2 [PROCOCENE II] | 22.5% | 39.5 µg | 27.5% | 5% | 45%
2 | CCCOc1cc2c(c(C)c1OC)C=CC(C)(C)O2 | 0% | 32.7 µg | 80% | 0% | 15%
3 | COc1cc2c(c(C)c1OC)C=CC(C)(C)O2 | 25% | 96.5 µg | 45% | 0% | 30%
4 | CCC(C)Oc1cc2c(c(C)c1OC)C=CC(C)(C)O2 (configuration not stated) | 0% | 20 µg | 0% | 37.5% | 47.5%
5 | CCOc1cc2c(c(C)c1OC)C=CC(C)(C)O2 | 0% | 88.3 µg | 95% | 0% | 5%
6 | CCOc1cc2c(cc1OC)C=CC(C)(C)O2 | 60% | 24.5 µg | 5% | 15% | 20%
7 | C#CCOc1cc2c(c(C)c1OC)C=CC(C)(C)O2 | 0% | 29.9 µg | 0% | 20% | 30%
8 | CCOc1c(OC)cc2c(c1C)C=CC(C)(C)O2 | 0% | 71 µg | 37.5% |  | 52.5%
9 | COc1c(OC2CCCC2)cc2c(c1C)C=CC(C)(C)O2 | 0% | 22.4 µg |  |  | 52.5%
